Measurements from US9849104B2 (Gemphire Therapuetics Inc., priority 2015, dated 2017).
Read-outs that look alike come from different tables or passages of the source.

Key:
[1] = Musculoskeletal adverse events, study A4141001; assay type: in vivo, human
[2] = system: STAM model of non-alcoholic steatohepatitis (NASH)
Procedure: Telmisartan (Micardis®) was purchased from Boehringer Ingelheim GmbH (Germany) and dissolved in pure water.
Telmisartan was administered at a dose of 10 mg/kg once daily.
Eight-hour fasting blood glucose was measured in whole blood using Life Check (EIDIA Co. Ltd., Japan). For plasma biochemistry, eight-hour fasting blood was collected in polypropylene tubes with anticoagulant (Novo-Heparin, Mochida Pharmaceutical, Japan) and centrifuged at 1,000×g for 15 minutes at 4° C. The supernatant was collected and stored at −80° C. until use. Plasma insulin levels were quantified by Ultra Sensitive Mouse Insulin ELISA kit (Morinaga Institute of Biological Science, Inc., Japan).
On the day of termination, non-fasting blood glucose was measured in whole blood using Life Check. For plasma biochemistry, non-fasting blood was collected in polypropylene tubes with anticoagulant (Novo-Heparin) and centrifuged at 1,000×g for 15 minutes at 4° C. The supernatant was collected and stored at −80° C. until use. Plasma ALT, AST, ALP, GGT, BUN, creatinine and total bilirubin levels were measured by FUJI DRI-CHEM 7000 (Fujifilm Corporation, Japan). Plasma ketone body levels were quantified by EnzyChrom™ Ketone Body Assay Kit (BioAssay Systems, USA).
Liver samples were homogenized in chloroform-methanol (2:1, v/v) and incubated overnight at room temperature. After washing with chloroform-methanol-water (8:4:3, v/v/v), the extracts were evaporated to dryness, and dissolved in isopropanol. Liver triglyceride content was measured by Triglyceride E-test (Wako Pure Chemical Industries). […]
Statistical analyses were performed using Bonferroni Multiple Comparison Test on GraphPad Prism 6 (GraphPad Software Inc., USA). […] Results were expressed as mean±SD.
The viability, clinical signs and behavior were monitored daily. Body weight was recorded before the treatment. […] The animals were sacrificed by exsanguinations through direct cardiac puncture under isoflurane anesthesia (Pfizer Inc.) at 9 weeks of age.

[3] = male, Wistar, rat, in vivo, po, 10 mg/kg
Procedure: Dose solution was prepared by dissolving labeled drug in 0.45 mL ethanol and 4.05 mL 0.5% methylcellulose in water. […] Final specific activity of dose solution was 10.37 μCi/mg.
Male Wistar rats with an average weight of 202 g were fasted overnight prior to dosing. […] Carcasses were rapidly frozen in dry ice/hexane mixture and prepared for whole body sectioning and autoradiography. Sections of 50 μm thickness were air dried at −20° C. and applied to BioMax scientific imaging film (Eastman Kodak, Rochester, N.Y.) or phosphor imaging plates for autoradiographic exposure (Molecular Dynamics, Sunnyvale, Calif.). Carbon-14 standards (American Radiolabeled Chemicals, St. Louis) were included on representative films and plates for calibration of the analyzer. Processed films were digitized with the analyzer scanner (Loats INQUIRY image analysis system, Loats Associates, Westminster, Md.), and radioactivity remaining in tissues was determined by quantitative video densitometric analysis of digital images. Imaging plates were scanned after 1-week exposure. Resulting electronic images were used for preliminary evaluation of distribution.

[4] = A4141001, patient type IIa + IIb

For CC(C)c1c(C(=O)Nc2ccccc2)c(-c2ccccc2)c(-c2ccc(F)cc2)n1CC[C@@H](O)C[C@@H](O)CC(=O)O [Atorvastatin, reference compound], the “% = the percent of patients experiencing a musculoskeletal adverse event” value (from here on “% = the percent”) ([1]; A4141001, patient type IIa) was 9.1%, the “No = the number of muscle skeletal adverse events” value (from here on “No = the number”) ([1]; A4141001, patient type IIa) was 2 and the “% = the percent” value [1, 4] was 13.5%. The “No = the number” value [1, 4] was 7, the “% = the percent” value ([1]; A4141001, patient type IIb) was 16.7% and the “No = the number” value ([1]; A4141001, patient type IIb) was 5.
For CCCc1nc2c(C)cc(-c3nc4ccccc4n3C)cc2n1Cc1ccc(-c2ccccc2C(=O)O)cc1 [Telmisartan, reference compound], the “NAFLD Activity score, NAS (mean ± SD)” value ([2]; STAM NASH mice, 10 mg/kg PO QD 6-9 wks, 10 mg/kg) was “significant reduction”, the “mortality during the treatment period” value ([2]; STAM NASH mice, 10 mg/kg PO QD, before reaching Day 21) was “one mouse was found dead” and the “Fasting blood glucose (mean ± SD)” value ([2]; STAM NASH mice, 10 mg/kg PO QD, Day 18, 8 hours of fasting, listed as telemisartan, 10 mg/kg) was “significant increase”. For the same molecule, the “Liver triglyceride (mean ± SD)” value ([2]; STAM NASH mice, 10 mg/kg PO QD, Day 21, listed as telemisartan, 10 mg/kg) was “significant decrease”, the “Non-fasting blood glucose (mean ± SD)” value ([2]; STAM NASH mice, 10 mg/kg PO QD, termination (Day 21), listed as telemisartan, 10 mg/kg) was “significant increase” and the “fibrosis area compared with the Vehicle in NASH group” value ([2]; STAM NASH mice, all treatment groups (gemcabene 30, 100, 300 mg/kg; telmisartan 10 mg/kg)) was “significantly decreased”. The “Plasma ALP (mean ± SD)” value ([2]; mouse, in vivo, po, 10 mg/kg) was “significant increases”, the “Plasma BUN (mean ± SD)” value ([2]; mouse, in vivo, po, 10 mg/kg) was “significant increase” and the “Plasma GGT (mean ± SD)” value ([2]; mouse, in vivo, po, 10 mg/kg) was 1 ± 0 U/L. For the same molecule, the “Plasma creatinine (mean ± SD)” value ([2]; mouse, in vivo, po, 10 mg/kg) was 0.1 ± 0.0 mg/dL.
In the case of CC(C)(CCCCOCCCCC(C)(C)C(=O)O)C(=O)O [[14C] gemcabene], the “radioequivalents remaining in Adrenal” value ([3]; 1 h) is reported as 6.05 μg equivalents/g, the “radioequivalents remaining in Blood” value ([3]; 1 h) is reported as 15.46 μg equivalents/g and the “radioequivalents remaining in Brain” value ([3]; 1 h) is reported as 0.41 μg equivalents/g. The “radioequivalents remaining in Kidney” value ([3]; 1 h) was 18.75 μg equivalents/g, the “radioequivalents remaining in Liver” value ([3]; 1 h) was 35.78 μg equivalents/g and the “radioequivalents remaining in Lung” value ([3]; 1 h) was 11.69 μg equivalents/g. For the same molecule, the “radioequivalents remaining in Muscle” value ([3]; 1 h) was 1.35 μg equivalents/g, the “radioequivalents remaining in Adrenal” value ([3]; 4 h) was 4.76 μg equivalents/g and the “radioequivalents remaining in Blood” value ([3]; 4 h) was 13.65 μg equivalents/g. For the same molecule, the “radioequivalents remaining in Brain” value ([3]; 4 h) was 0.47 μg equivalents/g, the “radioequivalents remaining in Kidney” value ([3]; 4 h) was 17.84 μg equivalents/g and the “radioequivalents remaining in Liver” value ([3]; 4 h) was 37.08 μg equivalents/g. The “radioequivalents remaining in Lung” value ([3]; 4 h) was 10.15 μg equivalents/g, the “radioequivalents remaining in Muscle” value ([3]; 4 h) was 1.40 μg equivalents/g and the “radioequivalents remaining in Adrenal” value ([3]; 8 h) was 4.29 μg equivalents/g. For the same molecule, the “radioequivalents remaining in Blood” value ([3]; 8 h) was 9.75 μg equivalents/g, the “radioequivalents remaining in Brain” value ([3]; 8 h) was 0.43 μg equivalents/g and the “radioequivalents remaining in Kidney” value ([3]; 8 h) was 16.44 μg equivalents/g. For the same molecule, the “radioequivalents remaining in Liver” value ([3]; 8 h) was 27.42 μg equivalents/g, the “radioequivalents remaining in Lung” value ([3]; 8 h) was 7.59 μg equivalents/g and the “radioequivalents remaining in Muscle” value ([3]; 8 h) was 0.99 μg equivalents/g. For the same molecule, the “radioequivalents remaining in Adrenal” value ([3]; 24 h) was 1.42 μg equivalents/g, the “radioequivalents remaining in Blood” value ([3]; 24 h) was 4.69 μg equivalents/g and the “radioequivalents remaining in Brain” value ([3]; 24 h) was 0.24 μg equivalents/g. The “radioequivalents remaining in Kidney” value ([3]; 24 h) was 17.45 μg equivalents/g, the “radioequivalents remaining in Liver” value ([3]; 24 h) was 24.35 μg equivalents/g and the “radioequivalents remaining in Lung” value ([3]; 24 h) was 3.58 μg equivalents/g. The “radioequivalents remaining in Muscle” value ([3]; 24 h) was 0.45 μg equivalents/g, the “radioequivalents remaining in Adrenal” value ([3]; 48 h) was 0.22 μg equivalents/g and the “radioequivalents remaining in Blood” value ([3]; 48 h) was 0.44 μg equivalents/g. The “radioequivalents remaining in Kidney” value ([3]; 48 h) was 7.23 μg equivalents/g, the “radioequivalents remaining in Liver” value ([3]; 48 h) was 3.64 μg equivalents/g and the “radioequivalents remaining in Lung” value ([3]; 48 h) was 0.36 μg equivalents/g. For the same molecule, the “radioequivalents remaining in Kidney” value ([3]; 96 h) was 0.83 μg equivalents/g and the “radioequivalents remaining in Liver” value ([3]; 96 h) was 0.24 μg equivalents/g.
